Data as given in patent US7235715B2, “Virus-resistant transgenic plants expressing L3” (priority 1998, dated 2007).

Experiments:
M1 killer virus = details: cited from earlier work
[1] = system: programmed −1 ribosomal frameshifting; experiment: Programmed −1 ribosomal frameshifting, lacZ reporter plasmids p−1/p0 in yeast; assay type: cell-based, Saccharomyces cerevisiae; details: various concentrations, four hours
[2] = system: programmed −1 ribosomal frameshifting; details: in cells and in in vitro translation extracts (ref. 19); cited from earlier work

COc1ccc(C[C@H]2NC[C@H](O)[C@H]2OC(C)=O)cc1 [anisomycin]
loss of the yeast L-A and its satellite dsRNA virus M1 (M1 killer virus): promote loss | effect on programmed −1 ribosomal frameshifting ([1]; mak8-1 strains): neither anisomycin nor sparsomycin had any further effect | effect on programmed −1 ribosomal frameshifting ([1]; wild-type cells): altered ribosomal frameshifting | effect on programmed −1 ribosomal frameshifting efficiencies [2]: alter

CSC[S@+]([O-])C[C@H](CO)NC(=O)/C=C/c1c(C)[nH]c(=O)[nH]c1=O [sparsomycin]
loss of the yeast L-A and its satellite dsRNA virus M1 (M1 killer virus): promote loss | effect on programmed −1 ribosomal frameshifting ([1]; mak8-1 strains): neither anisomycin nor sparsomycin had any further effect | effect on programmed −1 ribosomal frameshifting ([1]; wild-type cells): altered ribosomal frameshifting | effect on programmed −1 ribosomal frameshifting efficiencies [2]: alter
